The values that follow come from US12024506B2, “Compounds” (Oxford University Innovation Limited, priority 2018, dated 2024).

The test system of experiment [1] is DLD1 cells (ATCC CCL-221). The experiment can be described thus: Cell viability assay 1 (CellTiter-Glo), DLD1 cells. Type of experiment: cell-based. Conditions: Homo sapiens, DLD-1 cells, 48 h, second value of the cell, read-out: Cell Viability DLD-1 (concentration that decreases cell viability by 50%). The procedure:
(§1) Cells (A549 ATCC CCL-185) are cultured in Dulbecco's Modified Eagle's Medium plus 10% foetal calf serum and 2 mM L-glutamine at 37° C., 5% CO2. Cells are plated onto white clear bottom 96-well plates (5000 cells/well in 200 μl media) and left to adhere overnight at 37° C., 5% CO2. Next day, test compound (1 μl at 200× concentration in 100% DMSO) is added to give final test compound concentration 1× in 0.5% DMSO. After 48 h of incubation at 37° C., 5% CO2, 20 μl CellTiter-Glo reagent (Promega G7572) is added into each well. Plates are incubated at room temperature with shaking for 30 min and then luminescence is read using a PheraStar plate reader. The concentration of compounds that decrease cell viability by 50% is calculated from dose response curves generated using Dotmatics data analysis software.
In the DLD1 cell assay, cells (ATCC CCL-221) are cultured in RPMI-1640 medium plus 10% foetal calf serum and 2 mM L-glutamine at 37° C., 5% CO2.
For orientation: ATP-based viability assays read luminescence as a measure of living cells.

The target in experiment [2] is T1, GST-human KRas166 (G12V) GPPNHP (Homo sapiens, UniProt P01116, G12V).
T1 construct: made in house; host or cells: E. coli C41(DE3)
The experiment can be described thus: KRas small-molecule screening by SPR (Biacore T200). The format is binding. The settings on record: compound 100 uM, 5% DMSO buffer; immobilised GST-KRas166 (G12V) GPPNHP. The procedure, abridged:
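Biacore T200 screen: compounds at 100 uM final in 5% DMSO buffer (100 mM NaCl, 5 mM MgCl2) over GPPNHP-bound GST-KRas166 G12V captured by anti-GST antibody (10,000–15,000 RU) versus GST-only channel. Expected 1:1 Rmax 63 RU; DMSO solvent correction applied.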
A general note: In SPR one partner is held on a chip, and binding of the other changes the refractive index at the surface.

Experiment [3] concerns H358 cells (ATCC CRL-5807). The experiment can be described thus: Cell viability assay 1 (CellTiter-Glo), H358 cells. The format is cell-based. Conditions: Homo sapiens, NCI-H358, 48 h, first value of the cell, read-out: Cell Viability H358 (concentration that decreases cell viability by 50%). On the procedure: as §1
In the H358 cell assay, cells (ATCC CRL-5807) are cultured in RPMI-1640 medium plus 10% foetal calf serum and 2 mM L-glutamine at 37° C., 5% CO2.

Consider `COc1nc(-c2cccc3c2OCCO3)ccc1Nc1cccc(CNC(=O)c2ccncc2)c1` [Example 80, N-{3-[6-(2,3-Dihydro-benzo[1,4]dioxin-5-yl)-2-methoxy-pyridin-3-ylamino]-benzyl}-isonicotinamide], for which the IC50 was 13.4 µM in experiment [1] and 16.5 µM in experiment [3]. Further, in experiment [2], the “SPR Response Units” value is on record as 51 Response Units.

For `COc1nc(-c2cccc3c2OC(CNC(=O)C2CCOCC2)CO3)ccc1Nc1cccc(CN(C)C)c1` (stereo not drawn) [Example 84, Tetrahydro-pyran-4-carboxylic acid {8-[5(3-dimethylamino-methyl-phenylamino)-6-methoxy-pyridin-2-yl]-2,3-dihydro-benzo[1,4]dioxin-2-ylmethyl}-amide], the IC50 was found to be 20 µM in experiment [1] and 33 µM in experiment [3]. In addition, the “SPR Response Units” value in experiment [2] is given as 59 Response Units.

Turning to `COc1cc(NC(=O)N[C@@H]2CC[C@H](NC(=O)OCc3ccccc3)C2)cc(-c2cccc3c2OC(CNC(=O)C2CCOCC2)CO3)n1` (stereo partly drawn) [Example 100, ((1S,3R)-3-{3-[2-Methoxy-6-(3-{[(tetrahydro-pyran-4-carbonyl)-amino]-methyl}-2,3-dihydro-benzo[1,4]dioxin-5-yl)-pyridin-4-yl]-ureido}-cyclopentyl)-carbamic acid benzyl ester], the IC50 was determined as 5 µM in experiment [1] and 28 µM in experiment [3]. In addition, the “SPR Response Units” value in experiment [2] stood at 97 Response Units.

`CN1CCN(Cc2ccc(C(=O)NCC3COc4cccc(-c5cc(OCc6ccccc6)ccn5)c4O3)o2)CC1` (stereo not drawn) [Example 106, 5-(4-Methyl-piperazin-1-ylmethyl)-furan-2-carboxylic acid [8-(4-benzyloxy-pyridin-2-yl)-2,3-dihydro-benzo[1,4]dioxin-2-ylmethyl]-amide]: the figures for the IC50 in experiment [1] and in experiment [3] were 11 µM and 27 µM, respectively. Besides, the “SPR Response Units” value in experiment [2] is given as 114 Response Units.

On to `CN1CCN(Cc2ccc(C(=O)NCC3COc4cccc(-c5ccc(OCc6ccccc6)cn5)c4O3)o2)CC1` (stereo not drawn) [Example 109, 5-(4-Methyl-piperazin-1-ylmethyl)-furan-2-carboxylic acid [8-(5-benzyloxy-pyridin-2-yl)-2,3-dihydro-benzo[1,4]dioxin-2-ylmethyl]-amide], for which the results for the IC50 in experiment [1] and in experiment [3] were 9 µM and more than 100 µM, respectively. Moreover, in experiment [2], the “SPR Response Units” value amounted to 114 Response Units.

Take `COc1nc(-c2cccc3c2O[C@H](CNC(=O)C2CCOCC2)CO3)ccc1Nc1cccc(CN(C)C)c1` [Example 112, Tetrahydro-pyran-4-carboxylic acid {(R)-8-[5-(3-dimethylamino-methyl-phenylamino)-6-methoxy-pyridin-2-yl]-2,3-dihydro-benzo[1,4]dioxin-2-ylmethyl}-amide]: the IC50 came to 16.3 µM in experiment [1] and 18.8 µM in experiment [3]. In addition, the “SPR Response Units” value in experiment [2] worked out at 90 Response Units.

Take `COc1nc(-c2cccc3c2OC(CNC(=O)C2CCOCC2)CO3)ccc1Nc1ccc(CNCc2ccccn2)cc1` (stereo not drawn) [Example 118, Tetrahydro-pyran-4-carboxylic acid {8-[6-methoxy-5-(4-{[(pyridin-2-ylmethyl)-amino]-methyl}-phenylamino)-pyridin-2-yl]-2,3-dihydro-benzo[1,4]dioxin-2-ylmethyl}-amide]: the IC50 in experiment [1] stood at 11 µM; in experiment [3], 12.8 µM. The “SPR Response Units” value in experiment [2] is listed as 291 Response Units.

For `COc1nc(-c2cccc3c2OC(CNC(=O)C2CCOCC2)CO3)ccc1Nc1ccc(CNCc2ccncc2)cc1` (stereo not drawn) [Example 119, Tetrahydro-pyran-4-carboxylic acid {8-[6-methoxy-5-(4-{[(pyridin-4-ylmethyl)-amino]-methyl}-phenylamino)-pyridin-2-yl]-2,3-dihydro-benzo[1,4]dioxin-2-ylmethyl}-amide], the IC50 in experiment [1] came out at 11.2 µM; in experiment [3] it was 10 µM. In addition, in experiment [2], the “SPR Response Units” value is on record as 349 Response Units.

Regarding `COc1nc(-c2cccc3c2OC(CNC(=O)C2CCOCC2)CO3)ccc1Nc1ccc(CNCc2ccn[nH]2)cc1` (stereo not drawn) [Example 120, Tetrahydro-pyran-4-carboxylic acid {8-[6-methoxy-5-(4-{[(2H-pyrazol-3-ylmethyl)-amino]-methyl}-phenylamino)-pyridin-2-yl]-2,3-dihydro-benzo[1,4]dioxin-2-ylmethyl}-amide], the IC50 in experiment [1] was 10.9 µM; in experiment [3], 12.4 µM. The “SPR Response Units” value in experiment [2] was 230 Response Units.

`COc1nc(-c2cccc3c2OCCO3)ccc1Nc1cccc(CNCc2cn[nH]c2)c1` [Example 126, [6-(2,3-Dihydro-benzo[1,4]dioxin-5-yl)-2-methoxy-pyridin-3-yl]-(3-{[(1H-pyrazol-4-ylmethyl)-amino]-methyl}-phenyl)-amine]: the values for the IC50 in experiment [1] and in experiment [3] were 5.3 µM and 5.4 µM, respectively. In addition, the “SPR Response Units” value in experiment [2] came out at 210 Response Units.

For the compound `COc1nc(-c2cccc3c2OC(CNC(=O)C2CCOCC2)CO3)ccc1Nc1ccc(CNCC2COCCN2)cc1` (stereo not drawn) [Example 127, Tetrahydro-pyran-4-carboxylic acid{8-[6-methoxy-5-(4-{[(morpholin-3-ylmethyl)-amino]-methyl}-phenylamino)-pyridin-2-yl]-2,3-dihydro-benzo[1,4]dioxin-2-ylmethyl}-amide], the IC50 was 18.9 µM in experiment [1] and 16.9 µM in experiment [3]. Also, in experiment [2], the “SPR Response Units” value is on record as 205 Response Units.

As to `COc1nc(-c2cccc3c2OCCO3)ccc1Nc1ccc(CNC[C@@H]2COCCN2)cc1` [Example 128, [6-(2,3-Dihydro-benzo[1,4]dioxin-5-yl)-2-methoxy-pyridin-3-yl]-(4-{[((R)-1-morpholin-3-ylmethyl)-amino]-methyl}-phenyl)-amine], the IC50 in experiment [1] turned out to be 9.5 µM; in experiment [3], 6.7 µM. Besides, in experiment [2], the “SPR Response Units” value is recorded as 99 Response Units.

Turning to `COc1nc(-c2cccc3c2OCCO3)ccc1Nc1ccc(CNC[C@H]2COCCN2)cc1` [Example 129, [6-(2,3-Dihydro-benzo[1,4]dioxin-5-yl)-2-methoxy-pyridin-3-yl]-(4-{[((S)-1-morpholin-3-ylmethyl)-amino]-methyl}-phenyl)-amine], the IC50 in experiment [1] stood at 10.2 µM; in experiment [3], 6.5 µM. In addition, the “SPR Response Units” value in experiment [2] is reported as 92 Response Units.

In the case of `COc1cc(NC(=O)C2CNCCO2)cc(-c2cccc3c2O[C@H](CNC(=O)c2ccc(CN4CCN(C)CC4)o2)CO3)n1` (stereo partly drawn) [Example 130, Morpholine-2-carboxylic acid{2-methoxy-6-[(R)-3-({[5-(4-methyl-piperazin-1-ylmethyl)-furan-2-carbonyl]-amino}-methyl)-2,3-dihydro-benzo[1,4]dioxin-5-yl]-pyridin-4-yl}-amide], the IC50 in experiment [1] turned out to be 11.9 µM; in experiment [3], 13.6 µM. For the same compound, the “SPR Response Units” value in experiment [2] worked out at 61 Response Units.

For `COc1cc(-c2cccc3c2OCCO3)ccc1Nc1ccc(CNCC2COCCN2)cc1` (stereo not drawn) [Example 132, [4-(2,3-Dihydro-benzo[1,4]dioxin-5-yl)-2-methoxy-phenyl]-(4-{[(morpholin-3-ylmethyl)-amino]-methyl}-phenyl)-amine], the IC50 in experiment [1] amounted to 11 µM; in experiment [3], 12.7 µM. Also, the “SPR Response Units” value in experiment [2] is given as 204 Response Units.

Consider `CN1CCN(Cc2ccc(C(=O)NCC3COc4cccc(-c5cn(Cc6ccccc6)cn5)c4O3)o2)CC1` (stereo not drawn) [Example 138, 5-(4-Methyl-piperazin-1-ylmethyl)-furan-2-carboxylic acid[8-(1-benzyl-1H-imidazol-4-yl)-2,3-dihydro-benzo[1,4]dioxin-2-ylmethy]-amide], for which the IC50 in experiment [1] was 18 µM; in experiment [3], more than 100 µM. The “SPR Response Units” value in experiment [2] is 238 Response Units.

On to `COc1nc(-c2cccc3c2OCCO3)ccc1Nc1cccc(CNc2cccnc2)c1` [Example 143], for which the IC50 in experiment [1] was found to be 6.1 µM; in experiment [3], 17 µM. Further, the “SPR Response Units” value in experiment [2] is reported as 67 Response Units.

As to `c1cc2c(c(-c3ccc(Nc4ccc(CNCC5COCCN5)cc4)cc3)c1)OCCO2` (stereo not drawn) [Example 151, 4-(2,3-dihydrobenzo[b][1,4]dioxin-5-yl)-N-(4-(((morpholin-3-ylmethyl)amino)methyl)phenyl)aniline], the IC50 came to 1.36 µM in experiment [1] and 14.7 µM in experiment [3]. Besides, the “SPR Response Units” value in experiment [2] came out at 150 Response Units.

As to `CN(C)Cc1cccc(Nc2ccc(-c3cccc4c3OCCO4)[nH]c2=O)c1` [Example 153, 6-(2,3-Dihydro-benzo[1,4]dioxin-5-yl)-3-(3-dimethylaminomethyl-phenylamino)-1H-pyridin-2-one], the IC50 turned out to be 0.14 µM in experiment [1] and 0.6 µM in experiment [3]. In experiment [2], the “SPR Response Units” value is 90 Response Units.
